Measured values taken from patent publication EP3940071A1, “5-METHYLFOLATE PRODUCING MICROORGANISM” (Chifeng Pharmaceutical Co., Ltd, priority 2020, dated 2022).

Test: Stability of folic acid in 0.1 M NaOH (HPLC)
Type: physicochemical
Conditions: 25 °C, protected from light, 144 hours (6 days)

- decomposition of folic acid: did not undergo to decomposition
SMILES: Nc1nc2ncc(CNc3ccc(C(=O)N[C@@H](CCC(=O)O)C(=O)O)cc3)nc2c(=O)[nH]1 [folic acid, pteroyl-L-glutamic acid]
